IC50 data for 24 compounds are collected here from patent US20060148760A1, “Method for the sysnthesis of compounds of formula I and their uses thereof” (TransTech Pharma, priority 2000, published 2006).

Structures can show the parent of a compound that is named as a salt.

In one assay the target is T1, S-100b/RAGE interaction (Homo sapiens, UniProt Q15109).
T1 construct: generate soluble RAGE (sRAGE) comprised of the V and C domains
Kind of assay: ELISA assay, S-100b binding to sRAGE. The following applies: plate-bound S100b, concentration at which 50% signal is inhibited. How it is done:
(§1) S100b, β-amyloid and CML (500 ng/100 μL/well) in 100 mM sodium bicarbonate/sodium carbonate buffer (pH 9.8) is loaded onto the wells of a NUNC Maxisorp flat bottom 96—well microtitre plate. The plate is incubated at 4° C. overnight. The wells are aspirated and treated with 50 mM imidazole buffer saline (pH 7.2) (with 1 mM CaCl2/MgCl2) containing 1% bovine serum albumin (BSA) (300 μL/well) for two h at 37° C.
(§2) Test compounds are dissolved in nanopure water (concentration: 10-100 μM). DMSO may be used as co-solvent. 25 μL of test compound solution in 2% DMSO is added, along with 75 μL sRAGE (4.0×10^−4 mg/mL FAC) to each well and samples are incubated for 1 h at 37° C. The wells are washed 3 times with 155 mM NaCl pH 7.2 buffer saline and are soaked 10 seconds between each wash. Non-radioactive binding is performed by adding:
(§3) 10 μL Biotinylated goat F(ab′)2 Anti-mouse IgG. (8.0×10^−4 mg/mL, FAC)
(§4) 10 μL Alk-phos-Sterptavidin (3×10^−3 mg/mL FAC)
(§5) 10 μL Polyclonal antibody for sRAGE (FAC 6.0×10^−3 mg/mL) to 5 mL 50 mM imidazole buffer saline (pH 7.2) containing 0.2% bovine serum albumin and 1 mM CaCl2. The mixture is incubated for 30 minutes at 37° C. 100 μL complex is added to each well and incubation is allowed to proceed at rt for 1 h. Wells are washed 3 times with wash buffer and soaked 10 s between each wash. 100 μL 1 mg/mL (pNPP) in 1 M diethanolamine (pH adjusted to 9.8 with HCl) is added. […] The reaction is quenched with 10 μL of stop solution (0.5 N NaOH in 50% ethanol) and the absorbance is measured spectrophotometrically with a microplate reader at 405 nm.
In general terms: In an ELISA, binding on a coated surface is turned into a signal by an enzyme label.

In assay [1] the target is T2, β-amyloid—RAGE interaction (Homo sapiens, UniProt Q15109).
T2 construct: generate soluble RAGE (sRAGE) comprised of the V and C domains
Briefly: ELISA assay, β-amyloid binding to sRAGE. The following applies: plate-bound β-amyloid. How it is done: as §1, §2, §3, §4, §5

Assay [2] concerns the target T3, Carboxymethyl Lysine (CML)/RAGE interaction (Homo sapiens, UniProt Q15109).
T3 construct: generate soluble RAGE (sRAGE) comprised of the V and C domains
Briefly: ELISA assay, CML binding to sRAGE. To be noted: plate-bound CML. How it is done:
as §1, §2, §3, §4, §5

T3 sequence (Q15109 23-342 limits assumed): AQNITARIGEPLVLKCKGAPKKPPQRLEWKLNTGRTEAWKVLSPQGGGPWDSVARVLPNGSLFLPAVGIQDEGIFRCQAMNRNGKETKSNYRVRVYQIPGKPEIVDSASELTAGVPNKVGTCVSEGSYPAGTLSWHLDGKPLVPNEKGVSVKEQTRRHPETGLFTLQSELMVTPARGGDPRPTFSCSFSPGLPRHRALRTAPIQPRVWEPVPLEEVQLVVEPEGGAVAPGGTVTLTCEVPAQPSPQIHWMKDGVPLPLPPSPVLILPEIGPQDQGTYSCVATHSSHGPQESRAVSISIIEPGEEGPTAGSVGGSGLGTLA
T2 sequence (Q15109 23-342 limits assumed): as above
T1 sequence (Q15109 23-342 limits assumed): as above

The IC50 is the concentration needed to halve the response being measured. `CCCCOc1cc(C(=O)OCCN(CC)CC)ccc1NC(=O)[C@@H](Cc1ccc(OCc2ccccc2)cc1)NC(=O)NCC` [Example 17, (R)-3-(4-Benzyloxyphenyl)-2-ethylcarbamoylaminopropionic Acid 4-Diethylaminoethoxycarbonyl-2-butoxyaniline Amide]: at S-100b/RAGE interaction, the IC50 is 10000 nM.

Regarding `CCCCOc1cc(C(=O)OCCN(CC)CC)ccc1NC(=O)[C@@H](Cc1ccc(OCc2ccccc2)cc1)NS(=O)(=O)c1ccccc1` [Example 16, (R)-3-(4-Benzyloxyphenyl)-2-phenylsulfonylaminopropionic Acid 4-Diethylaminoethoxycarbonyl-2-butoxyaniline Amide], the IC50 on S-100b/RAGE interaction lay within 20000 to 30000 nM.

At S-100b/RAGE interaction, `CCCCOc1cc(C(=O)OCCN(CC)CC)ccc1NC(=O)[C@@H](Cc1ccc(OCc2ccccc2)cc1)NS(C)(=O)=O` [Example 15, (R)-3-(4-Benzyloxyphenyl)-2-methanesulfonylaminopropionic Acid 4-Diethylaminoethoxycarbonyl-2-butoxyaniline Amide] had an IC50 of 10000 to 30000 nM.

In the case of `CCCCOc1cc(C(=O)OCCN(CC)CC)ccc1NC(=O)[C@@H](Cc1ccc(OCc2ccccc2)cc1)NC(C)C` [Example 13, (R)-3-(4-Benzyloxyphenyl)-2-isopropylaminopropionic Acid 4-Diethylaminoethoxycarbonyl-2-butoxyaniline Amide], the IC50 in assay [1] amounted to 1000 nM; at S-100b/RAGE interaction, 1000 nM; in assay [2], 700 nM.

Regarding `CCCCOc1cc(C(=O)OCCN(CC)CC)ccc1NC(=O)[C@@H](Cc1ccc(OCc2ccccc2)cc1)NC(C)=O` [Example 26, (R)-3-(4-Benzyloxyphenyl)-2-acetylaminopropionic Acid 4-Diethylaminoethoxycarbonyl-2-butoxyaniline Amide], the IC50 on S-100b/RAGE interaction turned out to be 5600 nM.

Take `CCCCOc1cc(C(=O)OCCN(CC)CC)ccc1NC(=O)[C@@H](Cc1ccc(OCc2ccccc2)cc1)NC(=O)OC(C)(C)C` [Example 3, (R)-3-(4-Benzyloxyphenyl)-2-tert-butoxycarbonylaminopropionic Acid 4-Diethylaminoethoxycarbonyl-2-butoxyaniline Amide]: the half-inhibitory concentration (IC50) in assay [1] amounted to 1500 nM; on S-100b/RAGE interaction it was 1320 nM; in assay [2] it was 1500 nM.

`CCCCOc1cc(C(=O)OCCN(CC)CC)ccc1NC(=O)[C@H](N)Cc1ccc(OCc2ccccc2)cc1` [Example 4, (R)-3-(4-Benzyloxyphenyl)-2-aminopropionic Acid 4-Diethylaminoethoxycarbonyl-2-butoxyaniline Amide Dihydrochloride]: the IC50 in assay [1] amounted to 2200 nM; on S-100b/RAGE interaction, 820 nM; in assay [2] it was 1120 nM.

Regarding “(R)-3-(2-Naphthyl)-2-guanidinylpropionic Acid 4-Diethylaminoethoxycarbonyl-2-butoxyaniline Amide Dihydrochloride [Example 12]”, the IC50 in assay [1] is 5000 nM; on S-100b/RAGE interaction, 300 to 1000 nM; in assay [2] it was 700 nM.

Take `CCCCOc1cc(C(=O)OC)ccc1NC(=O)[C@H](N)Cc1ccc2ccccc2c1` [Example 2, (R)-3-(2-Naphthyl)-2-aminopropionic Acid 4-Methoxycarbonyl-2-butoxyaniline Amide Hydrochloride]: the IC50 came out at 5100 nM at S-100b/RAGE interaction and 3160 nM in assay [2].

With `CCCCOc1cc(C(=O)OCCN(CC)CC)ccc1NC(=O)[C@@H](Cc1ccc2ccccc2c1)NC` [Example 5, (R)-3-(2-Naphthyl)-2-methylaminopropionic Acid 4-Diethylaminoethoxycarbonyl-2-butoxyaniline Amide Dihydrochloride], the half-maximal inhibitory concentration (IC50) was found to be 1810 nM in assay [1], 2880 nM at S-100b/RAGE interaction and 1270 nM in assay [2].

`CCN(CC)CCOc1ccc(NC(=O)[C@@H](Cc2ccc(OCc3ccccc3)cc2)NC(=O)OC(C)(C)C)c(OCCN(CC)CC)c1` [Example 19, (R)-3-(4-Benzyloxyphenyl)-2-tert-butoxycarbonylaminopropionic Acid 4-Diethylaminoethoxy-2-diethylaminoethoxyaniline Amide]: the figures for the IC50 (in assay [1]; on S-100b/RAGE interaction; in assay [2]) were 800 nM, 1140 nM and 800 nM, respectively.

For `CCCCOc1cc(C(=O)OCCN(CC)CC)ccc1NC(=O)[C@@H](Cc1ccc(OCc2ccccc2)cc1)NCc1ccccc1` [Example 14, (R)-3-(4-Benzyloxyphenyl)-2-benzylaminopropionic Acid 4-Diethylaminoethoxycarbonyl-2-butoxyaniline Amide], on S-100b/RAGE interaction, the IC50 was found to be 2800 nM.

`CCCCOc1cc(C(=O)OCCN(CC)CC)ccc1NC(=O)[C@@H](Cc1ccccc1)NC(=O)OC(C)(C)C` [Example 10, (R)-3-Phenyl-2-tert-butoxycarbonylaminopropionic Acid 4-Diethylaminoethoxycarbonyl-2-butoxyaniline Amide] came in with an IC50 at S-100b/RAGE interaction of 950 nM.

Regarding `CCN(CC)CCOC(=O)c1ccc(NC(=O)[C@H](N)Cc2ccc(OCc3ccccc3)cc2)c(OCC(C)C)c1` [Example 9, (R)-3-(4-Benzyloxyphenyl)-2-aminopropionic Acid 4-Diethylaminoethoxycarbonyl-2-isobutoxyaniline Amide Dihydrochloride], the IC50 at S-100b/RAGE interaction was determined as 1600 nM. Compared with the last compound, the IC50 is about 1.7-fold higher.

`CCN(CC)CCOC(=O)c1ccc(NC(=O)[C@@H](Cc2ccc(OCc3ccccc3)cc2)NC(=O)OC(C)(C)C)c(OCc2ccco2)c1` [Example 23, (R)-3-(4-Benzyloxyphenyl)-2-tert-butoxycarbonylaminopropionic Acid 4-Diethylaminoethoxycarbonyl-2-(2-furylmethoxy)aniline Amide] gave an IC50 at S-100b/RAGE interaction of 15500 nM.

Consider “(R)-3-(4-Benzyloxyphenyl)-2-aminopropionic Acid 4-(3-Diethylamino-1-propoxy)-2-(3-diethylamino-1-propoxyaniline Amide Trihydrochloride [Example 22]”, for which the figures for the IC50 (in assay [1]; at S-100b/RAGE interaction; in assay [2]) were 1730 nM, 920 nM and 680 nM, respectively.

On to `COC(=O)c1ccc(NC(=O)[C@@H](Cc2ccc(OCc3ccccc3)cc2)NC(=O)OC(C)(C)C)c(O)c1` [Example 6, (R)-3-(4-Benzyloxyphenyl)-2-tert-butoxycarbonylaminopropionic Acid 4-Methoxycarbonyl-2-hydroxyaniline Amide], for which, at S-100b/RAGE interaction, the half-inhibitory concentration (IC50) came out at 6300 nM.

Consider “(R)-3-(4-Benzyloxyphenyl)-2-aminopropionic Acid 4-Diethylaminoethoxy-2-diethylaminoethoxyaniline Amide Trihydrochloride [Example 20]”, for which the 50% inhibitory concentration (IC50) came out at 1000 nM in assay [1], 840 nM at S-100b/RAGE interaction and 1000 nM in assay [2].

With `CC(C)(C)OC(=O)N[C@H](Cc1ccc(OCc2ccccc2)cc1)C(=O)Nc1ccc(C(=O)OC(C)(C)C)cc1OC(C)(C)C` [Example 7, (R)-3-(4-Benzyloxyphenyl)-2-tert-butoxycarbonylaminopropionic Acid 4-tert-Butoxycarbonyl-2-tert-butoxyaniline Amide], the IC50 was 1000 to 3000 nM on S-100b/RAGE interaction and 8000 nM in assay [2].

Regarding `CCN(CC)CCCOc1ccc(NC(=O)[C@@H](Cc2ccc(OCc3ccccc3)cc2)NC(=O)OC(C)(C)C)c(OCCCN(CC)CC)c1` [Example 21, (R)-3-(4-Benzyloxyphenyl)-2-tert-butoxycarbonylaminopropionic Acid 4-(3-Diethylamino-1-propoxy)-2-(3-diethylamino-1-propoxy)aniline Amide], the IC50 in assay [1] worked out at 1230 nM; on S-100b/RAGE interaction, 640 nM; in assay [2] it was 460 nM.

As for `CCN(CC)CCOC(=O)c1ccc(NC(=O)[C@@H](Cc2ccc(OCc3ccccc3)cc2)NC(=O)OC(C)(C)C)c(OCC(C)C)c1` [Example 8, (R)-3-(4-Benzyloxyphenyl)-2-tert-butoxycarbonylaminopropionic Acid 4-Diethylaminoethoxycarbonyl-2-isobutoxyaniline Amide], the half-maximal inhibitory concentration (IC50) on S-100b/RAGE interaction came to 2000 nM.

At S-100b/RAGE interaction, `CCCCOc1cc(C(=O)OCCN(CC)CC)ccc1NC(=O)[C@@H](Cc1ccc2ccccc2c1)NC(C)=O` [Example 25, (R)-3-(2-Naphthyl)-2-acetylaminopropionic Acid 4-Diethylaminoethoxycarbonyl-2-butoxyaniline Amide] yielded a concentration for half-maximal inhibition (IC50) of 15000 nM. Against the preceding compound, the IC50 is about 7.5-fold higher.

Compound `CCCCOc1cc(C(=O)OCCN(CC)CC)ccc1NC(=O)[C@H](N)Cc1ccccc1` [Example 11, (R)-3-Phenyl-2-aminopropionic Acid 4-Diethylaminoethoxycarbonyl-2-butoxyaniline Amide Dihydrochloride] had an IC50 at S-100b/RAGE interaction of 10000 to 30000 nM.

For the compound `CCN(CC)CCOC(=O)c1ccc(NC(=O)[C@H](N)Cc2ccc(OCc3ccccc3)cc2)c(OCc2ccco2)c1` [Example 24, (R)-3-(4-Benzyloxyphenyl)-2-aminopropionic Acid 4-Diethylaminoethoxycarbonyl)-2-(2-furylmethoxy)aniline Amide Dihydrochloride], on S-100b/RAGE interaction, the IC50 was 2700 nM. In other words, the single-digit micromolar range.
